“And” between values parts separate entries of the source, which are not always exact repeats. Identical values can stand only once.
How the values were obtained:
Parkin ligase = molecular target: T1, Parkin ligase (Homo sapiens, UniProt O60260); experiment: Activity-Based Probe Assay using Ubiquitin vinyl sulfone probe (TR-FRET); format: biochemical; conditions: heat activated Parkin, HA-Ub-VS probe, activation EC50; read-out: Probe Assay EC50 (μM) [Example 2]
T1 sequence (O60260 1-465): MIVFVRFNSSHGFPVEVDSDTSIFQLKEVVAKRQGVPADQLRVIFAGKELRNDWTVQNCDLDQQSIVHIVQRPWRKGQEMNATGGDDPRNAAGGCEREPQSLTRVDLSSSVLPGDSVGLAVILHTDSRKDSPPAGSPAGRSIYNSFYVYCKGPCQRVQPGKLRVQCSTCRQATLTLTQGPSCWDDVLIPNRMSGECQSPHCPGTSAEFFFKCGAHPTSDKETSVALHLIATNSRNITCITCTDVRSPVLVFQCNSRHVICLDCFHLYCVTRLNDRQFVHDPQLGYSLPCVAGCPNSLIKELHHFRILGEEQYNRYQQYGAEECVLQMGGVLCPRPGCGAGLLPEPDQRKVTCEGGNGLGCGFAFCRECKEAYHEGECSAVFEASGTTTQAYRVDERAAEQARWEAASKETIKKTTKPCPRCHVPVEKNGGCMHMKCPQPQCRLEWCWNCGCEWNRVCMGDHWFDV
Description: An Ubiquitin vinyl sulfone probe can be used that irreversibly binds to the active site cysteine of Parkin ligase. Covalent attachment of the probe to the Parkin can be monitored by TR-FRET. Candidate activator compounds can be identified by increasing the activity of Parkin ligase due to an increase in TR-FRET signal. Screening for activating compounds can be distinguished from the controls as follows: 100% activation signal=Heat activated Parkin+100 nM control activator in DMSO. 0% activation signal=Heat activated Parkin+DMSO only. Parkin activators can be identified by an increase of the 0% activation signal TR-FRET signal. Assay Conditions: Materials: • Assay Plate: White 384 well plate (Corning 3572) • Enzyme: Parkin-His tagged 203 μM (10.5 mg/ml) • Probe: Ubiquitin vinyl-sulfone (HA-Ub-VS Boston Biochem U-212) • DMSO: DMSO (Sigma cat #D4540-100ML) • Reaction Buffer: 50 mM HEPES (pH 8.5), 150 mM NaCl, 0.01% Tween 20, 0.1% BSA • Detection Buffer: 50 mM HEPES (pH 8.5), 150 mM NaCl, 0.01% Tween 20, 0.1% BSA, 800 mM KF • Detection Reagent A: 2.6 nM Anti-6HIS-Eu cryptate and 40 nM Anti-HA-XL665 in detection buffer • Eu cryptate: Anti-6HIS-Eu cryptate (CisBio 61HISKLA) • XL665: Anti-HA-XL665 (CisBio 610HAXLA) Enzyme Reaction (15 Min Pre Incubation Parkin with Activator Only) • Parkin: 40 nM • HA-Ub-VS Probe: 70 nM • Activator/DMSO: 2× Activator/2% DMSO Reaction time: 60 minutes Temperature: 22° C. Total volume: 10 μl reaction Detection Reaction Take […] of Enzyme Reaction above and add 10 μl detection Reagent A under the following conditions: • Reaction time: 60 minutes • Temperature: 22° C. • Total volume: 20 μl
Assay procedure (Using HP D-300 compound dispenser and Bravo for the operation):
1) Heat activate Parkin in reaction buffer (500 μl/1.5 ml tube: Eppendorf Thermomixer 5 minutes, 400 rpm at 58° C. and put on ice until needed).
2) Load assay plate wells with 4.8 μl 84.5 nM Parkin in reaction buffer by use of Bravo.
3) Deliver 0.2 μl 200× activator candidates in DMSO by use of HP D-300 compound dispenser. Highest 200× concentration=[…] and then twofold dilutions.
4) Spin 1000 rpm, 2 minutes, at room temp.
5) Incubate plate for 15 minutes at room temp.
6) Add 5 μl 140 nM HA-Ub-VS Probe in reaction buffer by use of Bravo.
7) Spin 1000 rpm, 2 minutes, at room temp.
8) Incubate plate for 60 minutes at room temp.
9) Add 10 μl 2.6 nM Anti-6HIS-Eu cryptate and 40 nM […] in detection buffer.
10) Spin 1000 rpm, 2 minutes, at room temp.
11) Incubate plate for 60 minutes at room temp.
12) Read plates on Perkin Elmer Envision instrument with the following parameters:
LANCE dual laser protocol loaded into the Envision® software
Top Mirror: LANCE/DELFIA Duel/Bias (Bar code 446)
Emission Filter: APC 665 EM (Bar code 205)
2nd Emission Filter: Europium 615 EM (Bar code 203)
Read 655 nm (channel 1) and 615 nm (channel 2) wavelengths on Envision®
Data Analysis: The Data can be read in CSV files. There are two tables in those CSV files, which are the values of 655 nm (channel 1) and 615 nm (channel 2) wavelengths respectively. The data is converted to an HTRF Ratio=(Channel 1/Channel 2)*10,000
The average of all the 0 μM controls (DMSO only)=BKGD (Background—0% activation). Subtract BKGD from each HTRF Ratio value=HTRF−BKGD. The average of all the […] 100 nM control activator in DMSO controls=Max (100% activation). The following equation is then used to calculate % Activation for each well/candidate as follows: % Activation=(HTRF−BKGD/Max)*100.
Graphpad Prism was used with Transform X values: X=Log(X) and nonlinear regression (dose-response-stimulation): Log(agonist) vs Response−variable slope (four parameters) with constrains set to Bottom=0 and Top=100.
The Activity-Based Probe Assay was performed with various compounds in Tables 1, 2, 3A and 3B.

[1] = Microsomal stability assay, rat liver microsomes; format: in vitro ADME; conditions: pH 7.4; rat liver microsomes 1.0 mg/mL, 1 μM compound, NADPH; read-out: RLM t1/2
Description: Compounds were also tested for metabolic stability in both rat liver microsomes (RLM) and the compounds are tested for human liver microsomes (HLM) and their half-life is calculated (See Tables 5A and 5B). The assay was performed as follows. The total volume for each incubation was 250 μL. A 100 μM DMSO solution of compound (diluted from 10 mM stock solution) was spiked into 50 mM KH2PO4 (pH 7.4) buffer containing liver microsome at a concentration of 1.0 mg/mL. The reaction was initiated by the addition of 50 μL of 1 mM NADPH. The final concentration of each compound was 1 μM (1% DMSO). The positive controls, phenacetin for CYP1A2, diclofenac for CYP2C9, omeprazole for CYP2C19, dextromethorphan for CYP2D6 and midazolam for CYP3A4 were added to a separate tube with the final substrate concentrations of 1 μM (1% DMSO) for evaluating the enzyme activities in the liver microsomes. At 0, 15, 30 and 60 min, an aliquot of 15 μL reaction mixtures were removed and 200 μL of methanol (with internal standard of 25 ng/mL propranolol) was added to quench the reaction. The resulting mixture was centrifuged and supernatant was used for LC-MS/MS analysis.
The signals for each compound, or the metabolites for the probe substrates and the internal standard were integrated and the peak area ratios to internal standard were generated. Percent parent remaining at a specified timepoint was calculated based on the peak area ratios at time 0 (as 100%) for in vitro metabolic stability studies in liver microsome and hepatocyte. The observed rate constant (kobs) for the metabolism of substrates was calculated by plotting the natural log of percentage substrate remaining versus time of incubation with the slope being kobs. The half-life (T1/2) was calculated according to the following equation: T1/2=[…]

TOV-21G (ovarian) = experiment: Cancer cell proliferation assay (acid phosphatase); format: cell-based; conditions: Homo sapiens, TOV21G, 72 h, Table 6A; 72 hrs; read-out: TOV-21G IC50
Description: (§1) Measurement of the inhibitive effect of compounds on cancer cell proliferation was performed. Various cell lines were tested, including HCT-116 (colon); A549 (lung); TOV-21G (ovarian); Calu-6 (lung); and LS-174T (colon); and cell lines H1703 (Lung) and SKOV3 (ovarian); JEKO-1 (lymophoma); TOV-112D (ovarian) are tested. The assays were performed under the following conditions: Cells are harvested at a concentration of 4×10^4 cells/ml in media. Volumes of 100 μl/well of these cell suspensions were added to a 96 well plate using a multichannel pipette. Plates were gently agitated to ensure an even dispersion of cells over a given plate. Cells were then incubated at 37° C., 5% CO2 overnight. Following this, 100 μl of compound at varying concentrations was added to wells in triplicate. Control wells are those with 100 μl media containing 0.33% DMSO added to cell suspension (this is the equivalent volume of DMSO found in the highest concentration of drug). Plates were then gently agitated, as above, and incubated at 37° C., 5% CO2 for 72 hrs (control wells have reached 80-90% confluency). Assessment of cell proliferation in the presence of the compound was determined by the acid phosphatase assay.
(§2) Following the incubation period of 72 hrs, media was removed from the plates. Each well on the plate was washed twice with 100 μl PBS. This was then removed and 100 μl of freshly prepared phosphatase substrate (10 mM p-nitrophenol phosphate in 0.1M sodium acetate, 0.1% triton X-100, pH 5.5) was added to each well. The plates were then incubated in the dark at 37° C. for 2 hours. Colour development was monitored during this time. The enzymatic reaction was stopped by the addition of 50 μl of 1N NaOH. The plate was read in a dual beam plate reader at 405 nm with a reference wavelength of 620 nm. The absorbance reading of the latter is subtracted from the former, and the effect of the drug on cell proliferation was then measured as a percentage against the control cells (DMSO), which is taken as 0% inhibition.

A549 (lung) = experiment: Cancer cell proliferation assay (acid phosphatase); format: cell-based; conditions: Homo sapiens, A549, 72 h, Table 6A; 72 hrs; read-out: A549 IC50
Description: as §1, §2

HCT-116 (colon) = experiment: Cancer cell proliferation assay (acid phosphatase); format: cell-based; conditions: Homo sapiens, HCT-116, 72 h, Table 6A; 72 hrs; read-out: HCT-116 IC50
Description: as §1, §2

Structure (SMILES)	EC50 (Parkin ligase)	half-life at 1 μM [1]	IC50 (TOV-21G (ovarian))	IC50 (A549 (lung))	IC50 (HCT-116 (colon))
Cc1ccccc1C(=O)Nc1nc(NC(=O)C2CCN2)nn1-c1ccccc1 (stereo not drawn) [Compound 5]	3 µM	2.18 h	–	–	–
C#Cc1ccccc1C(=O)Nc1nc(NC(=O)c2cccc(N=[N+]=[N-])c2)n(-c2ccccc2)n1 [Compound 8]	4 µM	1.18 h	–	–	–
Cc1ccccc1C(=O)Nc1nc(NC(=O)c2cocn2)n(-c2ccccc2)n1 [Compound 9]	32 µM	0.967 h	–	–	–
Cc1ccccc1C(=O)Nc1nc(NC(=O)c2ncco2)n(-c2ccccc2)n1 [Compound 10]	30 µM	0.45 h	–	–	–
C#Cc1cccc(C(=O)Nc2nc(NC(=O)c3cccc(N=[N+]=[N-])c3)n(-c3ccccc3)n2)c1 [Compound 11]	2 µM	2.45 h	–	–	–
C#Cc1cccc(C(=O)Nc2nc(NC(=O)c3ccc(N=[N+]=[N-])cc3)nn2-c2ccccc2)c1 [Compound 12]	1 µM and 3 µM	2.1 h	–	–	–
Cc1ccccc1C(=O)Nc1nc(NC(=O)c2cccnn2)n(-c2ccccc2)n1 [Compound 13]	7 µM	0.85 h	–	–	–
C#Cc1cccc(C(=O)Nc2nc(NC(=O)c3ccc(N=[N+]=[N-])cc3)n(-c3ccccc3)n2)c1 [Compound 18]	1 µM and 3 µM	1.72 h	–	–	–
COc1cccc(C(=O)Nc2nc(NC(=O)c3cccc(OC)c3)n(-c3ccccc3)n2)c1 [Compound 27]	3 µM	0.317 h	–	–	–
Cc1ccccc1C(=O)Nc1nc(NC(=O)c2ncccn2)n(-c2ccccc2)n1 [Compound 28]	22 µM	0.333 h	–	–	–
C#Cc1cccc(C(=O)Nc2nc(NC(=O)c3cccc(N=[N+]=[N-])c3)nn2-c2ccccc2)c1 [Compound 29]	2 µM	0.783 h	–	–	–
Cc1ccccc1C(=O)Nc1nc(NC(=O)c2ccccc2C)n(-c2ccc(N3CCC(O)C3)cc2)n1 (stereo not drawn) [Compound 58]	7 µM	–	2.4 µM	2.6 µM	–
O=C(Nc1nc(NC(=O)c2cccnc2)n(-c2ccc(OC(F)(F)F)cc2)n1)c1cccnc1 [Compound 61]	12 µM and 10 µM and 13 µM	–	1.4 µM	–	2.1 µM
O=C(Nc1nc(NC(=O)c2cccnc2)n(-c2ccc(C(F)(F)F)cc2)n1)c1cccnc1 [Compound 62]	8 µM	–	–	2 µM	2.7 µM
O=C(Nc1nc(NC(=O)c2ccncc2)n(-c2ccc(C(F)(F)F)cc2)n1)c1ccncc1 [Compound 63]	3 µM	–	–	–	2.5 µM
O=C(Nc1nc(NC(=O)c2ccncc2)n(-c2ccc(OC(F)(F)F)cc2)n1)c1ccncc1 [Compound 65]	5 µM	–	2.5 µM	–	2.5 µM
Cc1ccccc1C(=O)Nc1nc(-c2cccc(F)n2)nn1-c1ccccc1 [Compound 123]	7 µM	1.4 h	–	–	–
Cc1ccccc1C(=O)Nc1nc(-c2ccccc2O)nn1-c1ccc(OC(F)(F)F)cc1 [Compound 137]	4 µM	1.22 h	–	–	–
Cc1ccccc1C(=O)Nc1nc(NC(=O)c2c(F)cc(F)cc2F)nn1-c1ccccc1 [Compound 149]	–	–	> 2.5 µM	–	> 2.5 µM
Cc1ccccc1C(=O)Nc1nc(NC(=O)c2ccc(F)cc2F)nn1-c1ccccc1 [Compound 150]	–	–	> 2.5 µM	–	> 2.5 µM
Cc1ccccc1C(=O)Nc1nc(NC(C)(C)c2ccccc2)nn1-c1ccccc1 [Compound 152]	–	–	–	–	> 2.5 µM

From patent publication US10889553B2, “Asymmetric triazole benzamide derivatives and the compositions and methods of treatment regarding the same” (NysnoBio Ireland DAC, priority 2017, dated 2021)
